Where “and” joins values, the source holds several entries; their conditions need not be identical. Identical values can stand only once. Like-named read-outs stand apart in the source and are kept apart here.

The subject of series [1] is sensitive plants. The following applies: in vivo; cited from earlier work.
Series [2] concerns soybean. The series can be described thus: Spray tank dicamba treated with ChD crude cell lysate, applied to field soybean. The following applies: field soybean V2-V3, 2 ml of tank sample (about 200 mg/L dicamba, with or without 5% v/v crude cell lysate for 10 minutes), one week after application (FIG. 15). Type of series: in vivo. As to the method:
Chlorothalonil dehalogenase (ChD, SEQ ID NO: 168) was prepared as a crude cell lysate as described above in Example 5. […] A 5% v/v solution of the crude cell lysate containing the ChD enzyme was added and the tank was run for an additional 10 minutes. […] Each of the samples was frozen immediately after collection from the tank. Samples were transported to the field on ice to ensure that enzyme activity was halted.

Series [3] can be described thus: Absorbance spectra assay of dicamba degradation by ChD or CAC. The following applies: dicamba (CLASH) 200 mg/L alone (no enzyme), 50 mM HEPES pH 7.0, one hour at 37° C.
The nature of series [4]: Spray tank cleaning procedure using salicylate monooxygenase to remove dicamba. The following applies: spray application using dicamba.
Series [5] has as its system soybean seedlings. As to the kind of experiment: Spray of enzyme-treated dicamba solution onto soybean seedlings. Type of series: in vivo. The following applies: one week. The procedure: Salicylate monooxygenase (SM, SEQ ID NO: 21) and hydroxyphenylacetate monooxygenase (HPAM, SEQ ID NO: 30) were immobilized on particles. […] Aliquots (1 ml) were taken from incubated samples at 0 minutes, 10 minutes, 30 minutes, 1 hour, 5 hours, 24 hours and 30 hours after the introduction of SM and immediately frozen to stop the detoxification reaction. NADPH consumption was quantified by measuring loss of absorbance at 340 nm using a spectrophotometer. Results for SM are shown in panel A of FIG. 10 and results for HPAM are shown in panel A of FIG. 11. Consumption of NADPH is proportional to the degradation of dicamba.
Immediately after taking the absorbance measurements, the 1 ml aliquots were mixed with a nonionic organosilicone surfactant copolymer (0.1% SILWET L77) and 200 μL of the mixture was sprayed onto 2.5-week-old soybean seedlings (six plants per treatment group, on average). The use of the surfactant ensured even distribution of the solutions on the plants. Control plants were sprayed with water+surfactant alone or dicamba+surfactant alone. After one week, the degree of herbicide damage or the degree of protection from dicamba-induced injury (in plants treated with SM) was assessed visually.

In series [6] the test system is soybean plants. The series can be described thus: Trifoliate damage scoring of soybean treated with SM1-dicamba reaction products. In kind it is in vivo. Also noted: key: 0: No visible damage; 1: youngest trifoliate has moderate yellowing or curling; 2: youngest trifoliate has moderate yellowing or curling; 3: youngest trifoliate has severe yellowing or curling; 4: youngest trifoliate is completely dead or shriveled; 5: plant is completely necrotic (dead). The following applies: V1 soybean (Morsoy Xtra), 100 μL reaction product diluted 1:24 with 0.01% SILWET L-77 on trifoliate leaves, 6 plants; Time (hours) 2; scale 0-5. The source says:
These SM1-dicamba degradation products were applied to soybean seedlings (variety, Morsoy Xtra). […] The plants were scored based on trifoliate damage using the scale as described in Table 27.

Series [7] relates to soybean plants. As to the kind of experiment: V1 soybean bioassay of dicamba reacted with ChD with or without MnSO4.
Description: Soybean plants (variety Morsoy Xtra) were planted in Timberline soil (2 seeds per pot) and grown for 12 days under controlled environmental growth conditions: 300 μmol m^−2 s^−1 (light photons) for a 13/11 light/day cycle and a 21° C. day/15° C. night temperature range until the V1 stage of development.
The dilution to achieve 100 ppm or 100 mg/L was made in 25 mM HEPES pH 7 in a 10 mL total volume. […] The ChD enzyme production was centrifuged to remove any cellular debris and then divided into aliquots of 100 μL containing the Bacillus subtillis (A64) filtrate with the ChD expressed enzyme. […] The reactions were incubated at 37° C. with 400 ppm stirring for two hours. Aliquots of the reactions were collected and stored at −80° C.
For series [8] the following is noted: HPLC; for Dicamba (ppm): samples diluted to expected 35 ppm. The procedure: A Bacillus subtilis (A64) control reaction, which was supernatant with no SM1 enzyme was performed in parallel. The reactions were incubated at 37° C. with 400 rpm stirring for two hours. Aliquots of the reactions were collected at time 0 (T0), 1 hour, and 2 hours, and frozen at −80° C.
HPLC column (Kinetex® 5 μm C18 100 Å, LC Column 50×4.6 mm) was equilibrated for 15 minutes with 35% acetonitrile and 65% 10 mM ammonium acetate with 0.1% formic acid in water. A volume of 10 μL of each sample was injected into Waters 2695 Separations Module with a 2996 Photodiode Array Detector. Samples were run isocratically (35% acetonitrile and 65% 10 mM ammonium acetate with 0.1% formic acid in water) for 2 minutes. […] An average of 3 measurements was run for each treatment sample.
The HPLC results as reported in FIG. 2 are the average of 3 sample measurements.

The conditions of series [9]: oxidation of NADH. The text has this:
Spectra were read from 200-700 nm with a BioTek SYNERGY HTX plate reader (BioTek Instrument Inc.).
NADH disappears when the molecule is oxidized to NAD^+.

Series [10] in a line: NADPH consumption by immobilized monooxygenases with dicamba. Type of series: biochemical. The following applies: immobilized enzyme, dicamba 150 μM, 30° C., 60 minutes, vs no enzyme negative control (FIG. 3).
A short description of series [11]: NADPH consumption by immobilized monooxygenases with 2,4-D. Type of series: biochemical. The following applies: immobilized enzyme, 2,4-D 150 μM, 30° C., 60 minutes, vs no enzyme negative control (FIG. 3). The procedure: Monooxygenases can be used to detoxify herbicides in a solution. Monooxygenases use NADPH as a co-factor when degrading substrates. Consumption of NADPH is proportional to the degradation of the substrate.
The ability of each of these enzymes to detoxify 2,4-D was evaluated in a similar manner. […] Aliquots were taken from the samples at 30 minute and one hour timepoints, and NADPH consumption was assessed by measuring absorbance at 340 nm.
(§1) An additional experiment was performed to assess the substrate specificity of the salicylate monooxygenase (SM, SEQ ID NO: 21). […] The assay buffer also contained 0.5 mM FeSO4, 0.5 mM NADPH, 10 mM MgCl2, and 25 mM HEPES (pH 7). After 60 minutes, absorbance at 340 nm was measured to detect NADPH consumption. Data are represented as averages+/−SD from three independent reads of each reaction.

The subject of series [12] is lentil plants. The series can be described thus: Lentil seeds coated with immobilized enzyme, grown in dicamba-containing soil. Type of series: in vivo. The procedure: For each treatment group, eighteen lentil seeds were coated with immobilized salicylate monooxygenase (SM, SEQ ID NO: 21) or hydroxyphenylacetate monooxygenase (HPAM, SEQ ID NO: 30), or with a water-only control (H2O) or a control containing only the particles used for immobilization, without any enzyme (“Particle Alone”). […] 50 ml of water was selected as this is the saturation point of this soil at this scale. Herbicides were allowed to sit in the soil for 24 hours before planting of coated seeds. Germination rate was measured at one week and root and shoot lengths were measured after two weeks.
Further data illustrating the protective effects of salicylate monooxygenase (SM) and hydroxyphenylacetate monooxygenase (HPAM) on lentil plants grown in dicamba-containing soil are provided in FIGS. 6-9. Lentil seeds were treated as described above with water alone, particle alone, or enzyme immobilized on a particle. […] Growth (shoot and root length) was measured at two weeks.

The nature of series [13]: NADPH consumption by immobilized salicylate monooxygenase with salicylic acid. The following applies: immobilized enzyme, salicylic acid 150 μM, 30° C., 60 minutes (FIG. 3). In kind it is biochemical. As to the method: as §1
The mark [14] stands for this setting: dicamba 100 ppm, n=6, scale 0-5.

Take `COc1c(Cl)ccc(Cl)c1C(=O)O` [Dicamba, 3,6-dichloro-2-methoxybenzoic acid]: the “dicamba spray level at which sensitive plants show herbicide damage with pronounced symptoms” value in series [1] is on record as 0.017 kg/ha. Moreover, the “damage to or protection of soybean crop (size and growth vs untreated control)” value in series [2] was “significant damage to the crops”. Besides, the “Absorbance Maxima at Wavelength (λ) 230” value in series [3] was 1.597 and 1.5967. For the same molecule, the “Absorbance Maxima at Wavelength (λ) 259” value in series [3] came to 0.1597. Also, in series [3], the “Absorbance Maxima at Wavelength (λ) 280” value is listed as 0.2845. Besides, in series [4], the “safe zone concentration in rinsate (no injury or harm to the plant or the environment)” value was at most 15 mg/L. In addition, in series [5] (2.5-week-old soybean seedlings sprayed with 208 μM dicamba solution with or without immobilized enzyme), the “herbicide damage or protection from dicamba-induced injury, assessed visually” value was “significant curling of the leaves and stunted growth”. Further, the “average trifoliate damage score” value in [6] is recorded as 4; in series [7] (setting [14]), 3.5; in [7] (dicamba alone at 100 ppm, 150 ppm and 200 ppm), 3.5-3.6. The “Average Epinasty Score” value in series [7] (setting [14]) is given as 3.0. The “Percent Dicamba Concentration Relative to T0 control” value in series [8] (Time 0 hours) was determined as 100.0%; in [8] (Time 1 hour) it was 113.6%; in series [8] (Time 2 hours), 106.0%. For the same molecule, the “Dicamba (ppm)” value in series [8] (Time 0 hours, 25 mM HEPES pH 7, 37° C.) is given as 34.9 ppm; in series [8] (Time 1 hour, 25 mM HEPES pH 7, 0.5 mM NADH where stated, 37° C.), 39.7 ppm; in [8] (Time 2 hours, 25 mM HEPES pH 7, 0.5 mM NADH where stated, 37° C.) it was 37.0 ppm. Moreover, the results for the “Absorbance at 340 nM” value in series [9] (Time 1 hour), in series [9] (Time 2 hours) and in [9] (Time T0) were 0.059, 0.058 and 0.056, respectively.

B1: SM: salicylate monooxygenase from Bacillus cereus BGSC 6E1, amino acid SEQ ID NO: 21 (nucleotide SEQ ID NO: 1) (protein, listed as Bacillus cereus)
chain: MNNVIIIGGGIAGLCAAISLQKIGLDVKVYDKNTEPTVAGAGIIIAPNAMQALELYGISKKIKKFGNESDGFNLVSEKGTTFNKLIIPTCYPKMYSIHRKDLHQLLLSELKEDTVKWGKECVKIEQNEANALKIVFQDGSEALGNILIAADGIHSVIRKQVTQGDNYRYAGYTCWRGVTPANNLSLTNDFIETWGTNGRFGIVPLPNNEVYWYALINAKARDPKYKAYTTTDLYNHFKTYHNPIPSILKNASDIDMIHRDIIDITPMKQFFDKRIVFIGDAAHALTPNLGQGACQAIEDAIILAECIKNNAHYRQAFLEYEQKRRDRIEKISNTAWKVGKMAQIESKPLTLVRNEVMKRMPKWVSEKRTHELYSFHL
Consider B1, for which the NADPH consumption result in series [10] is listed as “statistically significant levels”; in series [11], “statistically significant levels”; in [13], “higher activity”. The germination rate result in series [12] (lentil seeds coated with immobilized enzyme, soil with dicamba 0.1× or […] label rate, one week, vs water and particle-alone controls) is on record as “positive effect”. For the same molecule, the shoot length entry in [12] (two-week-old lentil, soil with dicamba 0.1× label rate (0.588 mg/L), vs water only or particle only controls (FIG. 6, FIG. 8)) is “increased shoot lengths”. For the same molecule, in [5] (208 μM dicamba, immobilized enzyme, 30° C., soybean seedlings), the “incubation time of enzyme with dicamba giving plants equivalent to the water control” value is at most 10 min.

The values are drawn from US10428347B2, “Herbicide-detoxifying enzymes and uses thereof” (priority 2017, dated 2019).
